Seven compounds from ChEMBL document CHEMBL2380220, “Cytotoxic azaphilone alkaloids from Chaetomium globosum TY1” (Bioorg Med Chem Lett, 2013) can be followed below.

The test system of the experiment is HepG2. Kind of experiment: Cytotoxicity against human HepG2 cells after 72 hrs by SRB assay. It counts as functional, cell-based. To be noted: HepG2, 72 h.
For `CC[C@H](C)/C=C/C1=CC2=C(Cl)C(=O)[C@@]3(C)OC(=O)C(C(=O)[C@H](C)[C@@H](C)O)=C3C2=CO1`, the IC50 – broadly, the concentration that gives 50% inhibition – was 35.3 µM.

As to `C/C=C(\C)C(=O)C1=C2C3=CN(CCCC(=O)O)C(/C=C/[C@@H](C)CC)=CC3=C(Cl)C(=O)[C@@]2(C)OC1=O`, the IC50 amounted to 1.7 µM.

Compound `C/C=C(\C)C(=O)C1=C2C3=CN(CCO)C(/C=C/[C@@H](C)CC)=CC3=C(Cl)C(=O)[C@@]2(C)OC1=O` had an IC50 of 19.8 µM.

Turning to `CC[C@H](C)/C=C/C1=CC2=C(Cl)C(=O)[C@@]3(C)OC(=O)C(C(=O)[C@H](C)[C@@H](C)O)=C3C2=CN1CCO`, it took 53.4 µM to reach half-maximal inhibition (IC50).

Consider `CC[C@H](C)/C=C/C1=CC2=C(Cl)C(=O)[C@@]3(C)OC4(O)C(C(=O)O[C@@H](C)[C@@H]4C)C3C2=CO1` (some centres not stated), for which the 50% inhibitory concentration (IC50) is more than 100 µM.

As for `CC[C@@]1(O)C(=O)OCc2c1cc1n(c2=O)Cc2cc3ccccc3nc2-1` [CAMPTOTHECIN], the IC50 turned out to be 32.3 µM.

`C/C=C(\C)C(=O)C1=C2C3=COC(/C=C/[C@@H](C)CC)=CC3=C(Cl)C(=O)[C@@]2(C)OC1=O` [CHAETOVIRIDIN E]: the IC50 came to 40.6 µM.
